Assay results as given in patent US10334854B2, “Herbicide combinations comprising glufosinate and indaziflam” (BAYER CROPSCIENCE AKTIENGESELLSCHAFT, priority 2016, dated 2019).

What was measured:
[1] = tested on: Amaranthus retroflexus; experiment: Greenhouse pot trial, post-emergence herbicidal activity; type: in vivo; conditions: single post-emergence treatment, 12 g/ha of indaziflam, BBCH growth stage 11-12
Protocol: (§1) In separate pots, biological trials were conducted in the greenhouse under identical conditions (apart from the treatment with the different products P1 and P2 mentioned above). Each pot contained the same soil and the same amount of seeds of each of the following weeds (two monocotyledonous and two dicotyledonous harmful plant species (weed species)):
(§2) Tables 1 to 4 reflect the respective observed herbicidal activity ratings after treatment of the monocotyledonous harmful plant species (BBCH growth stage 11) and dicotyledonous harmful plant species (BBCH growth stage 10) for the different products applied once in post-emergence.
(§3) The observation period in each case was 40 days after start of treatment with the respective products P1 and P2 mentioned above, both in amounts of 3 L/ha and 5 L/ha, respectively.
(§4) Tables 5 to 8 reflect the respective observed herbicidal activity ratings after treatment of the monocotyledonous harmful plant species (BBCH growth stage 12-13) and dicotyledonous harmful plant species (BBCH growth stage 12) for the different products applied once in post-emergence. The observation period in each case was 40 days after start of treatment with the respective products P1 and P2 mentioned above, both in amounts of 3 L/ha and 5 L/ha, respectively.
(§5) Table 9 reflects the post-emergence efficacy of indaziflam [the ratio by weight of the (1*R)-1-fluoroethyl diastereoisomer of indaziflam to the ratio by weight of the (1*S)-1-fluoroethyl diastereoisomer of indaziflam was about 95:5] on the above mentioned weeds (two monocotyledonous and two dicotyledonous harmful plant species (weed species)) AMARE, STEME, LOLMU and POOAN, each at BBCH growth stage 11-12. Indaziflam was used in an amount of 12 g/ha.

[2] = tested on: Lolium multiflorum; experiment: as above; type: in vivo; conditions: single post-emergence treatment, 12 g/ha of indaziflam, BBCH growth stage 11-12
Protocol: as §1, §2, §3, §4, §5

[3] = tested on: Poa annua; experiment: as above; type: in vivo; conditions: single post-emergence treatment, 12 g/ha of indaziflam, BBCH growth stage 11-12
Protocol: as §1, §2, §3, §4, §5

[4] = tested on: Stellaria media; experiment: as above; type: in vivo; conditions: single post-emergence treatment, 12 g/ha of indaziflam, BBCH growth stage 11-12
Protocol: as §1, §2, §3, §4, §5

[5] = tested on: monocotyledonous and dicotyledonous harmful plant species; conditions: stated as known; cited from earlier work

For `Cc1ccc2c(c1)[C@H](Nc1nc(N)nc([C@@H](C)F)n1)[C@@H](C)C2` (mixture of isomers) [indaziflam, N^2-[(1R,2S)-2,3-dihydro-2,6-dimethyl-1H-inden-1-yl]-6-[(1RS)-1-fluoroethyl]-1,3,5-triazine-2,4-diamine], the “Regrowth (ratings of herbicidal activity)” value (“Regrowth” below) [1] was “very weak herbicidal effect starting on day 7 after treatment”, the “Regrowth” value [2] was “no herbicidal effect” and the “Regrowth” value [3] was “no herbicidal effect”. For the same molecule, the “Regrowth” value [4] was “no herbicidal effect” and the post-emergence efficacy [5] was “insufficient”.
